The values that follow come from ChEMBL document CHEMBL6120977, “Structure-Affinity-Pharmacokinetics Relationships of Novel 18F-Labeled 1,4-Diazepane Derivatives for Orexin 1 Receptor Imaging” (J Med Chem, 2024).

Data set [1] can be described thus: Biodistribution in male ddY mouse intestine administered intravenously and measured at 2 mins postinjection by gamma counter analysis. The format is ADME, organism-based. Particulars: in vivo, iv.
Data set [2] can be described thus: Biodistribution in male ddY mouse liver administered intravenously and measured at 60 mins postinjection by gamma counter analysis. The format is ADME, organism-based. Particulars: in vivo, iv, 1 h.
Data set [3] in a line: Biodistribution in male ddY mouse kidney administered intravenously and measured at 10 mins postinjection by gamma counter analysis. Conditions: in vivo, iv. The format is ADME, organism-based.
A short description of data set [4]: Biodistribution in male ddY mouse kidney administered intravenously and measured at 60 mins postinjection by gamma counter analysis. The format is ADME, organism-based. Particulars: in vivo, iv, 1 h.
The nature of data set [5]: Biodistribution in male ddY mouse kidney administered intravenously and measured at 30 mins postinjection by gamma counter analysis. The format is ADME, organism-based. Conditions: in vivo, iv, 0.5 h.
A short description of data set [6]: Biodistribution in male ddY mouse intestine administered intravenously and measured at 30 mins postinjection by gamma counter analysis. The format is ADME, organism-based. Conditions: in vivo, iv, 0.5 h.
The nature of data set [7]: Biodistribution in male ddY mouse brain administered intravenously and measured at 10 mins postinjection by gamma counter analysis. The format is ADME, organism-based. Particulars: in vivo, iv.
Data set [8] can be described thus: Biodistribution in male ddY mouse stomach administered intravenously and measured per organ at 60 mins postinjection by gamma counter analysis. Particulars: in vivo, iv, 1 h. The format is ADME, organism-based.
Data set [9] can be described thus: Biodistribution in male ddY mouse liver administered intravenously and measured at 30 mins postinjection by gamma counter analysis. The format is ADME, organism-based. Particulars: in vivo, iv, 0.5 h.
Data set [10] in a line: Biodistribution in male ddY mouse pancreas administered intravenously and measured at 2 mins postinjection by gamma counter analysis. The format is ADME, organism-based. Conditions: in vivo, iv.
Data set [11] in a line: Biodistribution in male ddY mouse intestine administered intravenously and measured at 60 mins postinjection by gamma counter analysis. The format is ADME, organism-based. Particulars: in vivo, iv, 1 h.
Data set [12] is described as follows: Biodistribution in male ddY mouse heart administered intravenously and measured at 2 mins postinjection by gamma counter analysis. The format is ADME, organism-based. Conditions: in vivo, iv.
A short description of data set [13]: Biodistribution in male ddY mouse lung administered intravenously and measured at 30 mins postinjection by gamma counter analysis. The format is ADME, organism-based. Conditions: in vivo, iv, 0.5 h.
The nature of data set [14]: Biodistribution in male ddY mouse blood administered intravenously and measured at 30 mins postinjection by gamma counter analysis. The format is ADME, organism-based. Conditions: in vivo, iv, 0.5 h.
Data set [15] can be described thus: Biodistribution in male ddY mouse pancreas administered intravenously and measured at 60 mins postinjection by gamma counter analysis. The format is ADME, organism-based. Particulars: in vivo, iv, 1 h.
Data set [16] can be described thus: Biodistribution in male ddY mouse brain administered intravenously and measured at 60 mins postinjection by gamma counter analysis. The format is ADME, organism-based. Particulars: in vivo, iv, 1 h.
Data set [17] is described as follows: Biodistribution in male ddY mouse bone administered intravenously and measured at 10 mins postinjection by gamma counter analysis. The format is ADME, organism-based, Bone element. Conditions: in vivo, iv.
A short description of data set [18]: Biodistribution in male ddY mouse lung administered intravenously and measured at 2 mins postinjection by gamma counter analysis. Conditions: in vivo, iv. The format is ADME, organism-based.
Data set [19] in a line: Biodistribution in male ddY mouse liver administered intravenously and measured at 2 mins postinjection by gamma counter analysis. The format is ADME, organism-based. Conditions: in vivo, iv.
Data set [20] is described as follows: Biodistribution in male ddY mouse blood administered intravenously and measured at 10 mins postinjection by gamma counter analysis. The format is ADME, organism-based. Conditions: in vivo, iv.
Data set [21] can be described thus: Biodistribution in male ddY mouse heart administered intravenously and measured at 60 mins postinjection by gamma counter analysis. The format is ADME, organism-based. Conditions: in vivo, iv, 1 h.
Data set [22] is described as follows: Biodistribution in male ddY mouse heart administered intravenously and measured at 30 mins postinjection by gamma counter analysis. The format is ADME, organism-based. Particulars: in vivo, iv, 0.5 h.
Data set [23] can be described thus: Biodistribution in male ddY mouse brain administered intravenously and measured at 2 mins postinjection by gamma counter analysis. Particulars: in vivo, iv. The format is ADME, organism-based.
The nature of data set [24]: Biodistribution in male ddY mouse blood administered intravenously and measured at 2 mins postinjection by gamma counter analysis. The format is ADME, organism-based. Particulars: in vivo, iv.
Data set [25] is described as follows: Biodistribution in male ddY mouse bone administered intravenously and measured at 60 mins postinjection by gamma counter analysis. The format is ADME, organism-based, Bone element. Conditions: in vivo, iv, 1 h.
The nature of data set [26]: Biodistribution in male ddY mouse lung administered intravenously and measured at 60 mins postinjection by gamma counter analysis. The format is ADME, organism-based. Particulars: in vivo, iv, 1 h.
Data set [27] in a line: Biodistribution in male ddY mouse liver administered intravenously and measured at 10 mins postinjection by gamma counter analysis. The format is ADME, organism-based. Conditions: in vivo, iv.
The nature of data set [28]: Biodistribution in male ddY mouse intestine administered intravenously and measured at 10 mins postinjection by gamma counter analysis. The format is ADME, organism-based. Particulars: in vivo, iv.
Data set [29] in a line: Biodistribution in male ddY mouse blood administered intravenously and measured at 60 mins postinjection by gamma counter analysis. The format is ADME, organism-based. Conditions: in vivo, iv, 1 h.
Data set [30] in a line: Biodistribution in male ddY mouse lung administered intravenously and measured at 10 mins postinjection by gamma counter analysis. The format is ADME, organism-based. Particulars: in vivo, iv.
Data set [31] can be described thus: Biodistribution in male ddY mouse stomach administered intravenously and measured per organ at 2 mins postinjection by gamma counter analysis. Conditions: in vivo, iv. The format is ADME, organism-based.
A short description of data set [32]: Biodistribution in male ddY mouse brain administered intravenously and measured at 30 mins postinjection by gamma counter analysis. The format is ADME, organism-based. Conditions: in vivo, iv, 0.5 h.
The nature of data set [33]: Biodistribution in male ddY mouse spleen administered intravenously and measured at 60 mins postinjection by gamma counter analysis. The format is ADME, organism-based. Particulars: in vivo, iv, 1 h.
Data set [34] is described as follows: Biodistribution in male ddY mouse bone administered intravenously and measured at 30 mins postinjection by gamma counter analysis. The format is ADME, organism-based, Bone element. Conditions: in vivo, iv, 0.5 h.
The nature of data set [35]: Biodistribution in male ddY mouse heart administered intravenously and measured at 10 mins postinjection by gamma counter analysis. The format is ADME, organism-based. Conditions: in vivo, iv.
Data set [36] in a line: Biodistribution in male ddY mouse stomach administered intravenously and measured per organ at 10 mins postinjection by gamma counter analysis. The format is ADME, organism-based. Particulars: in vivo, iv.
Data set [37] is described as follows: Biodistribution in male ddY mouse pancreas administered intravenously and measured at 30 mins postinjection by gamma counter analysis. The format is ADME, organism-based. Conditions: in vivo, iv, 0.5 h.
A short description of data set [38]: Biodistribution in male ddY mouse bone administered intravenously and measured at 2 mins postinjection by gamma counter analysis. Conditions: in vivo, iv. The format is ADME, organism-based, Bone element.
The nature of data set [39]: Biodistribution in male ddY mouse kidney administered intravenously and measured at 2 mins postinjection by gamma counter analysis. The format is ADME, organism-based. Conditions: in vivo, iv.
The nature of data set [40]: Biodistribution in male ddY mouse pancreas administered intravenously and measured at 10 mins postinjection by gamma counter analysis. Conditions: in vivo, iv. The format is ADME, organism-based.
Data set [41] in a line: Biodistribution in male ddY mouse spleen administered intravenously and measured at 10 mins postinjection by gamma counter analysis. The format is ADME, organism-based. Conditions: in vivo, iv.
The nature of data set [42]: Biodistribution in male ddY mouse spleen administered intravenously and measured at 30 mins postinjection by gamma counter analysis. The format is ADME, organism-based. Particulars: in vivo, iv, 0.5 h.
Data set [43] in a line: Biodistribution in male ddY mouse stomach administered intravenously and measured per organ at 30 mins postinjection by gamma counter analysis. The format is ADME, organism-based. Conditions: in vivo, iv, 0.5 h.
Data set [44] is described as follows: Biodistribution in male ddY mouse spleen administered intravenously and measured at 2 mins postinjection by gamma counter analysis. Conditions: in vivo, iv. The format is ADME, organism-based.
Data set [45] is filed under the species Homo sapiens. Briefly: Selectivity ratio of IC50 for recombinant human OX2R expressed in CHO-S cells to IC50 for recombinant human OX1R expressed in CHO-S cells. Particulars: tested as the 11C-labelled form. The format is cell-based.

Consider `Cc1ccc(-n2nccn2)c(C(=O)N2CCCN(c3nc4ccc([18F])cc4s3)C[C@@H]2C)c1`, for which the Drug uptake in [1] stood at 3.33 % ID/g; in [2] it was 7.53 % ID/g; in data set [3], 5.23 % ID/g; in data set [4] it was 0.81 % ID/g; in [5] it was 1.89 % ID/g; in data set [6] it was 11.8 % ID/g. Besides, the Drug uptake in data set [7] is 0.98 % ID/g; in [8] it was 0.87 %ID; in data set [9] it was 14.7 % ID/g; in [10] it was 5.89 % ID/g; in data set [11], 16.3 % ID/g; in data set [12], 7.6 % ID/g. Further, the Drug uptake was 1.2 % ID/g in data set [13]; 1.44 % ID/g in data set [14]; 0.26 % ID/g in [15]; 0.11 % ID/g in data set [16]; 4.94 % ID/g in data set [17]; 6.58 % ID/g in data set [18]. Also, the Drug uptake is reported as 13.3 % ID/g in data set [19]; 2.91 % ID/g in data set [20]; 0.43 % ID/g in [21]; 1.23 % ID/g in data set [22]; 2.42 % ID/g in data set [23]; 4.44 % ID/g in data set [24]. The Drug uptake in [25] amounted to 16 % ID/g; in [26] it was 0.48 % ID/g; in data set [27], 26.9 % ID/g; in [28], 6.23 % ID/g; in data set [29], 1.46 % ID/g; in data set [30], 3.43 % ID/g. In addition, the Drug uptake was found to be 1.15 %ID in [31]; 0.22 % ID/g in data set [32]; 0.42 % ID/g in data set [33]; 13.2 % ID/g in data set [34]; 3.11 % ID/g in data set [35]; 1.65 %ID in data set [36]. In addition, the Drug uptake in data set [37] is on record as 0.67 % ID/g; in data set [38], 3.11 % ID/g; in data set [39], 10.3 % ID/g; in [40], 2.95 % ID/g; in data set [41], 2.38 % ID/g; in data set [42], 0.9 % ID/g. The Drug uptake is 1.35 %ID in data set [43] and 2.92 % ID/g in [44].
`COc1ccnc(N2CCC3(CCN(Cc4cn(C)c5ccccc45)C(=O)C3)CC2)n1`: in data set [45], the Ratio IC50 was 5.6.
